From patent publication US9072729B2, “Method for treating fibrosis and cancer with imidazolium and imidazolinium compounds” (Agency for Science, Technology and Research, priority 2008, dated 2015) come the findings set out here.

One assay concerns NF-κB P65. Nature of the assay: Western blotting of nuclear NF-κB and AP-1 in HSC T6 cells. It is filed as cell-based, rat. The note with it: DBZIM 100 μM, TDBZIM 50 μM, 48 h. Here is the method: FIG. 11. Western blotting of NF-κB and AP-1 (c-Fos, JunD and Fra-1) protein expressions in HSC T6 cells treated with DBZIM (100 μM) and TDBZIM (50 μM) for 48 h. 15 μg of nuclear protein was resolved in 4-12% gradient PAGE-SDS gel. The target proteins were recognized by the respective antibodies, and visualized by the ECL method. The membrane was stripped and probed for the Tata binding protein TBP used as the loading control.
Protein extracts were prepared by lysing a cell pellet in 10 volumes of boiled 1% sodium dodecyl sulfate (SDS) (90-95° C.) for 10 min for GFAP, or using NE-PER nuclear and cytoplasmic extraction reagents from Pierce (IL, USA) for nuclear proteins, or RIPA (Pierce, Ill., USA) for SMAA, fibronectin, collagen αI(I), TGF-β1 and TGFβ RI. Protein content was quantified using a BCA kit (Pierce, Ill., USA). […] The membrane was then probed with primary antibodies against GFAP (Dako, Denmark), SMAA (Sigma, USA), procollagen αI(I), fibronectin, c-Jun, c-Fos, JunB, JunD, Fra-1, Fra-2 (Santa Cruz Biotechnology, CA, USA), NF-κB P65, TGF-β1 and TGFβ RI (Abeam, UK), and detected by horseradish peroxidase-conjugated secondary antibody (Santa Cruz Biotechnology, CA, USA). […] Protein bands were recorded on X-ray film by reacting with ECL chemiluminescence reagents (Amersham Biosciences, NJ, USA). […]

Assay [1] deals with col1a1, fibronectin, GFAP, SMAA, TGF-β1, TGFβ RI protein expression. As to the kind of experiment: Western blotting of fibrotic marker proteins in HSC T6 cells. As to conditions: DBZIM 100 μM, TDBZIM 50 μM, 48 h. Format: cell-based, rat. Here is the method:
FIG. 8. […] The target proteins were recognized by the respective antibodies, and visualized by the ECL method. The membrane was stripped and re-probed for α-tubulin as the loading control. FIG. 13. […] DPIM (2 mM), EGCG (25 μM) and DBZIM (100 μM) were dissolved in H2O. Alpha-tubulin was used as the loading control. Densitometric measurement of protein band intensity was normalized against the respective vehicle control. (B) Relative densitometric quantification of protein band intensity. The vehicle treated sample was normalized to 1. Protein extracts were prepared by lysing a cell pellet in 10 volumes of boiled 1% sodium dodecyl sulfate (SDS) (90-95° C.) for 10 min for GFAP, or using NE-PER nuclear and cytoplasmic extraction reagents from Pierce (IL, USA) for nuclear proteins, or RIPA (Pierce, Ill., USA) for SMAA, fibronectin, collagen αI(I), TGF-β1 and TGFβ RI. Protein content was quantified using a BCA kit (Pierce, Ill., USA). 15 μg of total protein were resolved in 4-12% gradient SDS/polyacrylamide gel electrophoresis (PAGE) gel, and transferred to a nitrocellular membrane. The membrane was then probed with primary antibodies against GFAP (Dako, Denmark), SMAA (Sigma, USA), procollagen αI(I), fibronectin, c-Jun, c-Fos, JunB, JunD, […] Cruz Biotechnology, CA, USA), NF-κB P65, TGF-β1 and TGFβ RI (Abeam, UK), and detected by horseradish peroxidase-conjugated secondary antibody (Santa Cruz Biotechnology, CA, USA). […] Protein bands were recorded on X-ray film by reacting with ECL chemiluminescence reagents (Amersham Biosciences, NJ, USA). Alpha-tubulin (Abeam, UK) was used as the loading control for total protein, and Tata binding protein (TBP) (Abeam, UK) was used as the loading control for nuclear protein.
In general terms: A western blot detects proteins with antibodies after separation by electrophoresis.

The test system of another assay is HLE cells. As to the kind of experiment: Growth inhibition assay (MTT), HLE. It is filed as cell-based, human. Here is the method: The effect of IMSs (IBN-15, IBN-19, IBN-24, IBN-25 and IBN-32) on the proliferative properties of p53 mutant cell line HLE was examined. The cytotoxicity activity and proliferation inhibition of IMSs in tumor cells were measured by MTT. […] The control experiments with DMSO alone (0.05% v/v) had no effect on cell proliferation. […] (Table 4) Microscopic observation on the cell cultures visually confirmed the inhibition on cell proliferation by IMSs. (FIG. 35)

For assay [2], the system named is caspase 3, caspase 9 and PARP. As to the kind of experiment: Western blot of caspase-3, caspase-9 and PARP cleavage in HLE. The note with it: 72 h. It is filed as cell-based, human. The method, then:
FIG. 38. IMSs, induce cleavage of caspase-3, caspase-9 and PARP. Western blot analysis for the effect of IBN 15, IBM 19, IBN 24, IBM 25, IBN 32 on the cleavage of caspase-3, Caspase-9 and PARP in HLE cells after 72 h exposure to indicated doses of IMSs.
The HLE cells were seeded at a density of 4×10^5 in 10 cm dish. After 24 h incubation, the cells were replaced with fresh 10% DMEM medium and then treated with 60 μM of IBN-15, 90 μM of IBN-19, 90 μM of IBN-24, 30 μM of IBN-25 and 20 μM of IBN 32 and 0.045% DMSO as control for 72 h. Whole cell lysates were prepared on day 3 with lysis buffer [125 mM Tris (pH 7.4), 2% Sodium dodecyl sulfate, 10% glycerol, 6M urea and a protease inhibitor cocktail (Sigma) and 0.02% Bromophenol blue]. The lysates were sonicated for 30 seconds and then heated for 5 mins at boiling temperature. The lysates were centrifuged at 13000 rpm for 10 mins and the protein concentration of each sample was estimated using the BCA protein assay. The lysates was then mixed with 5% 2-mercaptoethanol and stored at −80 C. For Western blotting, samples containing 50 μg of total cell lysate were loaded onto a SDS-PAGE and subjected to electrophoresis. Proteins were transferred to a nitrocellulose membrane and then blocked with 5% non-fat dry milk in Tris buffer saline containing 0.1% Tween 20 for 60 min at 37 C. The membranes were probed with a primary antibody overnight at 4 C in TEST containing 5% Bovine serum albumin. Then the membrane was incubated with horseradish peroxidase (HRP)-conjugated anti-rabbit or anti-mouse secondary antibodies (GE Health care, Chalfont St Giles, UK). Detection was performed with enhanced chemiluminescence (ECL) reagent (Amersham Arlington Heights, Ill.) according to the manufacturer's protocol. Rabbit polyclonal Phospho-p53 (Ser15, 20, 46, 392), anti-caspase-9, anti-caspase-3, anti-PARP antibodies were purchased from Cell Signaling Technology, Inc. (Beverly, Mass., USA). Antibodies against p53 and p21 were purchased from Santa Cruz Biotechnology (Santa Cruz, Calif., USA).

On to `[Br-].c1ccc(Cn2cc[n+](Cc3ccccc3)c2)cc1` [DBZIM, 1,3-bisbenzylimidazolium bromide], for which the “nuclear NF-κB P65 (active form) protein” value in the assay with NF-κB P65 was “significantly attenuated”. Also, in assay [1], the SMAA protein expression entry was “suppressed”; the “procollagen αI(I) and fibronectin protein expression” value is “attenuated procollagen αI(I) and fibronectin significantly”.
In the case of `Cc1ccc(C[n+]2ccn(Cc3ccccc3)c2)cc1.[Cl-]` [IBN-24, 1-benzyl-3-(4-methylbenzyl)-imidazolium chloride], the concentration for half-maximal inhibition (IC50) with HLE cells (Homo sapiens, 72 h) was 90 µM; with HLE cells (Homo sapiens, 120 h), 30 µM. Moreover, the “activation and cleavage of caspase 3, caspase 9 and PARP” value in assay [2] is “induced significant activation and cleavage”.
As for “1,3,5-tris(4-methyl-imidazolium)-linked cyclophane.3Br [TDBZIM]”, in the assay with NF-κB P65, the “nuclear NF-κB P65 (active form) protein” value is given as “significantly attenuated”. Further, in assay [1], the SMAA protein expression entry is on record as “enhanced”; the “procollagen αI(I) and fibronectin protein expression” value was “attenuated procollagen αI(I) and fibronectin significantly”.
Regarding `CC(=O)Oc1ccc(C[n+]2ccn(Cc3ccccc3)c2C)cc1.[Cl-]` [IBN-19, 1-benzyl-3-(4-acetate-benzyl)-2-methyl-imidazolium chloride], the IC50 with HLE cells (72 h) is 90 µM; in the assay with HLE cells (120 h), 28 µM. Besides, the “activation and cleavage of caspase 3, caspase 9 and PARP” value in assay [2] is “induced significant activation and cleavage”.

The term IC50 denotes the concentration that gives 50% inhibition.
